Key:
Test in all cases: relative viability (nuclei count vs DMSO), 5 days (fraction); higher = more cells survive
NCI-H23 = tested on: NCI-H23
In short: (§1)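 Five library-drug doses in √10 steps were combined with a fixed anchor-drug dose, or a single drug was given alone, by pin tool to lung cancer cell lines in 1536-well plates the day after seeding. Nuclei were stained and counted after 5 days. Relative viability is the nuclei count in treated wells over that in vehicle wells, taken as the median of duplicate plates.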

NCI-H358 = tested on: NCI-H358
In short: as §1

NCI-H1792 = tested on: NCI-H1792
In short: as §1

SK-MES-1 = tested on: SK-MES-1
In short: as §1

NCI-H1793 = tested on: NCI-H1793
In short: as §1

LC-2-ad = tested on: LC-2-ad
In short: as §1

NCI-H1395 = tested on: NCI-H1395
In short: as §1

NCI-H2023 = tested on: NCI-H2023
In short: as §1

NCI-H650 = tested on: NCI-H650
In short: as §1

PC-14 = tested on: PC-14
In short: as §1

COR-L23 = tested on: COR-L23
In short: as §1

NCI-H2009 = tested on: NCI-H2009
In short: as §1

NCI-H2347 = tested on: NCI-H2347
In short: as §1

201T = tested on: 201T
In short: as §1

HCC-15 = tested on: HCC-15
In short: as §1

NCI-H1915 = tested on: NCI-H1915
In short: as §1

NCI-H1437 = tested on: NCI-H1437
In short: as §1

EMC-BAC-2 = tested on: EMC-BAC-2
In short: as §1

HCC-366 = tested on: HCC-366
In short: as §1

COR-L 105 = tested on: COR-L 105
In short: as §1

NCI-H1755 = tested on: NCI-H1755
In short: as §1

CCNC(=O)c1noc(-c2cc(C(C)C)c(O)cc2O)c1-c1ccc(CN2CCOCC2)cc1 [Luminespib] + Cc1nc(NC(=O)N2CCC[C@H]2C(N)=O)sc1-c1ccnc(C(C)(C)C(F)(F)F)c1 [Alpelisib] (partner 2 µM)
relative viability (NCI-H23; first compound 0.002 µM): 0.814 | relative viability (NCI-H23; first compound 0.006325 µM): 0.56 | relative viability (NCI-H23; first compound 0.02 µM): 0.504 | relative viability (NCI-H23; first compound 0.06325 µM): 0.141 | relative viability (NCI-H23; first compound 0.2 µM): 0.116 | relative viability (NCI-H358; first compound 0.002 µM): 0.841 | relative viability (NCI-H358; first compound 0.006325 µM): 0.76 | relative viability (NCI-H358; first compound 0.02 µM): 0.635 | relative viability (NCI-H358; first compound 0.06325 µM): 0.117 | relative viability (NCI-H358; first compound 0.2 µM): 0.128 | relative viability (NCI-H1792; first compound 0.002 µM): 0.595 | relative viability (NCI-H1792; first compound 0.006325 µM): 0.621 | relative viability (NCI-H1792; first compound 0.02 µM): 0.355 | relative viability (NCI-H1792; first compound 0.06325 µM): 0.308 | relative viability (NCI-H1792; first compound 0.2 µM): 0.1 | relative viability (SK-MES-1; first compound 0.002 µM): 0.82 | relative viability (SK-MES-1; first compound 0.006325 µM): 0.858 | relative viability (SK-MES-1; first compound 0.02 µM): 0.593 | relative viability (SK-MES-1; first compound 0.06325 µM): 0.306 | relative viability (SK-MES-1; first compound 0.2 µM): 0.133 | relative viability (NCI-H1793; first compound 0.002 µM): 0.806 | relative viability (NCI-H1793; first compound 0.006325 µM): 0.536 | relative viability (NCI-H1793; first compound 0.02 µM): 0.319 | relative viability (NCI-H1793; first compound 0.06325 µM): 0.212 | relative viability (NCI-H1793; first compound 0.2 µM): 0.165 | relative viability (LC-2-ad; first compound 0.002 µM): 0.881 | relative viability (LC-2-ad; first compound 0.006325 µM): 0.821 | relative viability (LC-2-ad; first compound 0.02 µM): 0.858 | relative viability (LC-2-ad; first compound 0.06325 µM): 0.123 | relative viability (LC-2-ad; first compound 0.2 µM): 0.092 | relative viability (NCI-H1395; first compound 0.002 µM): 1.37 | relative viability (NCI-H1395; first compound 0.006325 µM): 1.03 | relative viability (NCI-H1395; first compound 0.02 µM): 1.17 | relative viability (NCI-H1395; first compound 0.06325 µM): 0.469 | relative viability (NCI-H1395; first compound 0.2 µM): 0.349 | relative viability (NCI-H2023; first compound 0.002 µM): 0.59 | relative viability (NCI-H2023; first compound 0.006325 µM): 0.609 | relative viability (NCI-H2023; first compound 0.02 µM): 0.529 | relative viability (NCI-H2023; first compound 0.06325 µM): 0.255 | relative viability (NCI-H2023; first compound 0.2 µM): 0.0672 | relative viability (NCI-H650; first compound 0.002 µM): 1.24 | relative viability (NCI-H650; first compound 0.006325 µM): 1.04 | relative viability (NCI-H650; first compound 0.02 µM): 0.994 | relative viability (NCI-H650; first compound 0.06325 µM): 0.193 | relative viability (NCI-H650; first compound 0.2 µM): 0.145 | relative viability (PC-14; first compound 0.002 µM): 0.942 | relative viability (PC-14; first compound 0.006325 µM): 0.882 | relative viability (PC-14; first compound 0.02 µM): 0.893 | relative viability (PC-14; first compound 0.06325 µM): 0.091 | relative viability (PC-14; first compound 0.2 µM): 0.0816 | relative viability (COR-L23; first compound 0.002 µM): 0.825 | relative viability (COR-L23; first compound 0.006325 µM): 0.685 | relative viability (COR-L23; first compound 0.02 µM): 0.714 | relative viability (COR-L23; first compound 0.06325 µM): 0.0624 | relative viability (COR-L23; first compound 0.2 µM): 0.0515 | relative viability (NCI-H2009; first compound 0.002 µM): 1.29 | relative viability (NCI-H2009; first compound 0.006325 µM): 1.02 | relative viability (NCI-H2009; first compound 0.02 µM): 1.28 | relative viability (NCI-H2009; first compound 0.06325 µM): 0.698 | relative viability (NCI-H2009; first compound 0.2 µM): 0.0841 | relative viability (NCI-H2347; first compound 0.002 µM): 1.14 | relative viability (NCI-H2347; first compound 0.02 µM): 0.779 | relative viability (NCI-H2347; first compound 0.06325 µM): 0.936 | relative viability (NCI-H2347; first compound 0.2 µM): 0.382 | relative viability (201T; first compound 0.002 µM): 0.965 | relative viability (201T; first compound 0.006325 µM): 1.01 | relative viability (201T; first compound 0.02 µM): 0.96 | relative viability (201T; first compound 0.06325 µM): 1.04 | relative viability (201T; first compound 0.2 µM): 1.03 | relative viability (HCC-15; first compound 0.002 µM): 0.964 | relative viability (HCC-15; first compound 0.006325 µM): 0.852 | relative viability (HCC-15; first compound 0.02 µM): 0.773 | relative viability (HCC-15; first compound 0.06325 µM): 0.54 | relative viability (HCC-15; first compound 0.2 µM): 0.492 | relative viability (NCI-H1915; first compound 0.002 µM): 1.09 | relative viability (NCI-H1915; first compound 0.006325 µM): 0.987 | relative viability (NCI-H1915; first compound 0.02 µM): 0.862 | relative viability (NCI-H1915; first compound 0.06325 µM): 1.08 | relative viability (NCI-H1915; first compound 0.2 µM): 1.04 | relative viability (NCI-H1437; first compound 0.002 µM): 0.878 | relative viability (NCI-H1437; first compound 0.006325 µM): 0.919 | relative viability (NCI-H1437; first compound 0.02 µM): 1.16 | relative viability (NCI-H1437; first compound 0.06325 µM): 0.294 | relative viability (NCI-H1437; first compound 0.2 µM): 0.107 | relative viability (EMC-BAC-2; first compound 0.002 µM): 0.746 | relative viability (EMC-BAC-2; first compound 0.006325 µM): 0.707 | relative viability (EMC-BAC-2; first compound 0.02 µM): 0.61 | relative viability (EMC-BAC-2; first compound 0.06325 µM): 0.771 | relative viability (EMC-BAC-2; first compound 0.2 µM): 0.762 | relative viability (HCC-366; first compound 0.002 µM): 0.442 | relative viability (HCC-366; first compound 0.006325 µM): 0.496 | relative viability (HCC-366; first compound 0.02 µM): 0.312 | relative viability (HCC-366; first compound 0.06325 µM): 0.0181 | relative viability (HCC-366; first compound 0.2 µM): 0.0182 | relative viability (COR-L 105; first compound 0.002 µM): 1.04 | relative viability (COR-L 105; first compound 0.006325 µM): 0.96 | relative viability (COR-L 105; first compound 0.02 µM): 1.35 | relative viability (COR-L 105; first compound 0.06325 µM): 0.343 | relative viability (COR-L 105; first compound 0.2 µM): 0.181 | relative viability (NCI-H1755; first compound 0.002 µM): 0.972 | relative viability (NCI-H1755; first compound 0.006325 µM): 0.887 | relative viability (NCI-H1755; first compound 0.02 µM): 0.823 | relative viability (NCI-H1755; first compound 0.06325 µM): 0.905 | relative viability (NCI-H1755; first compound 0.2 µM): 0.561
